Calls of active or inactive are those of the source.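 How the source made its calls: active means maximal inhibition of USP17 at or above 30% in the confirmation dose-response, a value not among the printed readouts; inactive means the rest.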

The values below come from PubChem BioAssay AID1645864 (Buhrlage Lab, Dana-Farber Cancer Institute and Novartis …, 2021).

Chain of Ubiquitin carboxyl-terminal hydrolase 17-like protein 5 (Homo sapiens) (A8MUK1 whole entry, looked up): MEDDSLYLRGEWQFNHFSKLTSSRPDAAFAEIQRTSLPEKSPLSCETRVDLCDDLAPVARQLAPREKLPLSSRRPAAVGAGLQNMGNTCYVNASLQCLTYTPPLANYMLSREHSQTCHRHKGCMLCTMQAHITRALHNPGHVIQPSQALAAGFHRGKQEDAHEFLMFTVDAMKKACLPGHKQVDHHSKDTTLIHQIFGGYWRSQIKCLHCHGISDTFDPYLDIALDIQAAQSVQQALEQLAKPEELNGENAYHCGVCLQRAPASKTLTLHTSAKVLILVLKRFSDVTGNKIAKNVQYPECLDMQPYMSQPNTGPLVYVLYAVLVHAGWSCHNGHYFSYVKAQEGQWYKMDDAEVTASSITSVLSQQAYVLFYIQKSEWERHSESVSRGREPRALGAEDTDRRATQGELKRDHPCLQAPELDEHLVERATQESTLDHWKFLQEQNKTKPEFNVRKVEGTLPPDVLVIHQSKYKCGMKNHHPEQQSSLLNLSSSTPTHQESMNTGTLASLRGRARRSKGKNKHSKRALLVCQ

This experiment has as its target Ubiquitin carboxyl-terminal hydrolase 17-like protein 5 (Homo sapiens) (UniProt A8MUK1). Briefly: ubiquitin-specific protease 17 inhibitors, concentration series, biochemical, verification of primary actives (AID 1645864). The following applies: purified USP17, ubiquitin-rhodamine cleavage fluorescence, 3 h.
With `CN(C)S(=O)(=O)N1CCCC2(C1)Nc1cccnc1NC2=NC1CCCC1` (stereo not given), the IC50 was > 50 µM (inactive).

For `CC(=O)c1ccc(NC(=O)CC2C(=O)Nc3nc4ccccc4n32)cc1` (stereo not given), the IC50 is 32.5 µM.

As for `O=C1COc2ccccc2N1Cc1noc(-c2ccccc2)n1`, the IC50 is > 50 µM (inactive).

Consider `COc1ccc(CNC(=O)CN2C(=O)CC(c3ccccc3)=Nc3ccccc32)cc1`, for which the IC50 was 4.42 µM.

Consider `O=C(NCc1ccc(F)cc1)N1CCC2(C1)Nc1cccnc1NC2=NCc1ccccc1` (stereo not given), for which the IC50 was > 50 µM (inactive).

For `O=C(NCCn1ccc2ccccc21)c1cc2ccccc2oc1=O`, the IC50 was 29.8 µM.

Turning to `COc1ccc(NC(=O)c2ccccc2OCC(=O)Nc2ccccc2C(F)(F)F)c(C)c1`, the IC50 is 26.9 µM.

As for `COc1cccc(CN2CCc3nc4nc(C)ccc4cc3C2)c1`, the IC50 is > 50 µM (inactive).

For `N#Cc1cccc(S(=O)(=O)N2CCc3nc4ccccc4n3CC2)c1`, the IC50 was 19.5 µM.

With `Nc1c(C(=O)Nc2ccc3c(c2)OCO3)sc2nc(-c3cccnc3)ccc12`, the IC50 is 1.64 µM.

With `COc1ccc(CNC(=O)CCc2nnc3n(Cc4ccccc4Cl)c(=O)c4ccccc4n23)cc1`, the half-inhibitory concentration (IC50) was 2.65 µM.

Take `O=C(Nc1ccccc1)c1cn2c3c(cccc3c1=O)CC2`: the IC50 is 26.9 µM.

Take `O=C1C(O)=C(c2ccc(O)cc2)C(=O)C(O)=C1c1ccccc1`: the IC50 was 6.1 µM.

`COc1ccccc1C(=O)NCC(c1ccc2c(c1)CCCN2C)N1CCCC1` (stereo not given): the IC50 is > 50 µM (inactive).

As to `COC(=O)c1ccc(NC(=O)CSc2nnc(-c3ccc(O)cc3)n2Cc2ccco2)cc1`, the IC50 is 24.9 µM.

As to `N#Cc1cc2c(nc1SCC(=O)NCc1ccccc1)CCCC2`, the IC50 was > 50 µM (inactive).

As to `CC(C)CC[C@H]1O[C@@H](CC(=O)O)Cc2cc3c(c(O)c21)C(=O)c1sc(=O)n(C)c1C3=O`, the IC50 is 0.194 µM.

Turning to `COc1cccc2c1OCC(NS(=O)(=O)c1cc(C)ccc1C)C2` (stereo not given), the IC50 is > 50 µM (inactive).

In the case of `Cc1ccc2c(c1C)NC(=O)[C@]21[C@@H]2C(=O)N(c3cc(Cl)ccc3Cl)C(=O)[C@@H]2[C@@H]2CCCN21`, the IC50 was > 50 µM (inactive).

As for `O=C(NCCCc1nc2ccccc2n1Cc1c(Cl)cccc1Cl)c1ccco1`, the IC50 was 36 µM.

As for `CC(C)NC(=O)CN1C(=O)CC(C)Sc2ccc(S(=O)(=O)N3CCCCC3)cc21` (stereo not given), the IC50 is 25.2 µM.

Consider `COc1ccc(/C=C/c2ccnc3nc(-n4cccc4)nn23)cc1`, for which the IC50 was > 50 µM (inactive).

In the case of `COc1cccc(NC(=O)C2Cc3ccccc3N2C(=O)c2ccccc2)c1` (stereo not given), the IC50 is 27.7 µM.

Consider `Cc1ccccc1-c1noc(-c2ccccc2OCC(=O)NC(C)C)n1`, for which the IC50 is > 50 µM (inactive).

In the case of `COc1ccc(NC(=O)CN2C(=O)c3ccccc3Sc3ccc(C(=O)N4CCCC4)cc32)c(OC)c1`, the IC50 is 17.7 µM.

Regarding `COc1ccc(S(=O)(=O)N2CCc3ccccc32)cc1C(=O)Nc1ccc2[nH]c(=O)[nH]c2c1`, the IC50 is 4.48 µM.

Turning to `O=C(O)CCCCCN1C(=O)CC(c2ccc(Cl)cc2)CC1=O`, the IC50 is 18.2 µM.

For the compound `CC1(C)Cc2c(sc3nc(Cc4ccccc4)nc(SCC(=O)Nc4ccccc4)c23)CO1`, the IC50 is 2.35 µM.

As to `CC(CCc1ccccc1)NC(=O)Cn1c(=O)c2cccn2c2ccccc21` (stereo not given), the IC50 was 11.6 µM.

In the case of `CCc1nc(N2CCCC2=O)sc1C(=O)Nc1cccc(C(C)=O)c1`, the IC50 was > 50 µM (inactive).

For the compound `CN(C)c1cc(-n2cnc(C(=O)NCc3ccccc3Cl)c2)ncn1`, the IC50 is 41.3 µM.

As to `CS(=O)(=O)N1CCCc2cc(C(=O)Nc3ccc(Oc4ccccc4)cc3)ccc21`, the IC50 was > 50 µM (inactive).

Take `O=c1c2ccccc2c(-c2nc(-c3ccncc3)no2)cn1-c1ccccc1`: the IC50 was 2.75 µM.

Take `CCOc1ccc(-n2c(SCC(=O)N3CC(=O)Nc4ccccc43)nnc2-c2ccc(OC)cc2)cc1`: the IC50 is 42.5 µM.

`COC(=O)c1cc2c(ccn2C)n1CC(=O)NC1CC1`: the IC50 was > 50 µM (inactive).

On to `Cc1cc(NCC2CC2)n2nc(Nc3cc(Cl)ccc3C)nc2n1`, for which the IC50 was 30.4 µM.

As for `Cc1c(C)n(-c2ccc(Br)cn2)c2ncnc(NCCCO)c12`, the IC50 was 49.9 µM.

Consider `CCCc1nc2sc3c(NCc4ccco4)ncnc3c2c2c1CCC2`, for which the IC50 is > 50 µM (inactive).

On to `O=C(CCC1CCCCC1)Nc1ccccc1C(=O)N1CCOCC1`, for which the IC50 is > 5 µM (inactive).

Take `O=C(Cn1cnc2c(oc3ccccc32)c1=O)NCc1ccccc1Cl`: the IC50 is 14.5 µM.

With `COc1ccccc1-c1ccc(SCC(=O)Nc2ccc3c(c2)OCCO3)nn1`, the IC50 is > 50 µM (inactive).

With `Cc1ccc(C(=O)NCc2ccc(C(=O)Nc3ccc(C)c(C)c3)o2)cc1`, the IC50 was 24.1 µM.

For `Cc1cc2nc(-c3ccc(SCc4ccccn4)nc3)[nH]c2cc1C`, the half-inhibitory concentration (IC50) is 31.3 µM.

On to `O=C(NCc1ccc(F)cc1)C1CCCN(c2cnc3nccnc3c2)C1` (stereo not given), for which the IC50 is > 50 µM (inactive).

Regarding `CC(C)c1cc(Nc2cccc(F)c2)n2nc(-c3cccnc3)nc2n1`, the IC50 is 7.65 µM.

Turning to `O=C(Nc1cccc(C(F)(F)F)c1)c1cc2c(s1)-c1ccccc1OC2`, the IC50 was 2.15 µM.

Turning to `O=c1ccc(-c2noc(-c3ccc4cc[nH]c4c3)n2)c[nH]1`, the IC50 was > 50 µM (inactive).

In the case of `O=C(NCCc1ccccc1F)c1cn2cc(Cl)ccc2n1`, the IC50 is 28.7 µM.

With `Nc1c(C(=O)c2cccs2)oc2nc(-c3ccccc3)cc(-c3ccco3)c12`, the IC50 was > 50 µM (inactive).

Consider `CC1CCN(C(=O)c2cn(-c3cc(N4CCC(C)CC4)ncn3)cn2)CC1`, for which the IC50 was > 50 µM (inactive).

Regarding `O=C(Cn1nnc(-c2ccc(F)cc2)n1)NCCc1ccccc1`, the IC50 was 33.7 µM.

Turning to `COc1ccc(C2CC(=O)Nc3ccc4ccccc4c32)c(OC)c1OC` (stereo not given), the IC50 is 40.4 µM.

As to `CCCCCCCc1cc(O)cc(OC(=O)c2c(CCCCCCC)cc(O)cc2O[C@H]2O[C@H](C(O)CO)[C@@H](O)[C@@H]2O)c1` (stereo not given in full), the IC50 is 34.1 µM.

For the compound `COc1cc(C(=O)Nc2ccc(-c3csc(C)n3)cc2)cc(OC)c1OC`, the IC50 is > 50 µM (inactive).

For the compound `O=C(Cc1c[nH]c2ccccc12)Nc1nc2ccccc2s1`, the IC50 is > 50 µM (inactive).

Turning to `Cc1c(-c2ccccc2)oc2c(C(=O)OCC(=O)Nc3ccccc3F)cccc2c1=O`, the IC50 was > 50 µM (inactive).

Take `COc1ccc(-c2cnnn2-c2ccc(NC(=O)c3c(F)cccc3F)cc2)cc1OC`: the IC50 was > 50 µM (inactive).

Consider `O=C(Cc1noc2ccccc12)N1CCN(c2ccc([N+](=O)[O-])cc2)CC1`, for which the IC50 was > 50 µM (inactive).

With `COc1ccccc1CNC(=O)C1CCCN(c2nc3ccsc3c(=O)s2)C1` (stereo not given), the IC50 was 4.2 µM.

Take `Cc1ccc2c(c1)c(=O)c(C(=O)c1ccccc1)cn2CC(=O)Nc1ccccc1`: the half-inhibitory concentration (IC50) was 9.87 µM.

In the case of `Cc1ccc(NC(=O)c2ccc3nn(CC(=O)Nc4ccc(F)cc4F)c(=O)n3c2)cc1`, the IC50 was 2.79 µM.

Take `CCn1c(COc2cccc(C(F)(F)F)c2)nnc1SCc1ccc(Cl)cc1`: the IC50 was 43.4 µM.

On to `Cn1ccc2c(cc(C(=O)NCCC3=CCCCC3)n2C)c1=O`, for which the IC50 was > 50 µM (inactive).

Regarding `O=C1Cc2ccccc2C(=O)N1c1ccc2c(c1)OCO2`, the IC50 was 22.6 µM.

For the compound `CC1CCN(c2cc(-n3cnc(C(=O)N4CCCCC4)c3)ncn2)CC1`, the IC50 is > 50 µM (inactive).

Consider `O=C(NCc1ccc(-c2nc3cnccc3o2)cc1)c1ccccc1F`, for which the half-inhibitory concentration (IC50) was 18.8 µM.

In the case of `O=C(Nc1nc2c(ccc3ccccc32)s1)c1cccc(Br)c1`, the IC50 is 2.7 µM.

As for `O=C(OCc1ccc(Br)cc1)c1ccc2ccccc2n1`, the IC50 is > 50 µM (inactive).

In the case of `CCN(CC)C(=O)c1sc(NC(=O)/C=C/c2c(F)cccc2Cl)c(C#N)c1C`, the IC50 was 2.29 µM.

Take `O=C(Nc1cccc(C(F)(F)F)c1)N1CCCn2c(nc3ccccc32)C1`: the IC50 was 25 µM.

As for `COc1ccc(OCC(=O)Nc2ccc(C)c(OCc3cc(=O)n4ccccc4n3)c2)cc1`, the IC50 was 4.29 µM.

For the compound `Cc1ccc2nc(NC(=O)C3CCCN3S(=O)(=O)c3ccc4c(c3)OCCO4)sc2c1` (stereo not given), the IC50 is > 50 µM (inactive).

Take `CCc1ccc(NC(=O)CN=C2NS(=O)(=O)C(c3ccc(CC)cc3)=C2C)cc1`: the IC50 was 32.5 µM.

On to `Cc1nn(-c2ccc(F)cc2)cc1-c1noc(C(=O)NCc2ccccn2)n1`, for which the IC50 was 23.5 µM.

Take `Cc1cccc(-n2cnc(C(=O)NCc3ccc(F)cc3)c2)n1`: the IC50 was 22.8 µM.

`Cc1ccc(NC(=O)c2cnc(N3CCOCC3)nc2)cc1F`: the IC50 is 28.6 µM.

In the case of `O=C(Nc1cc(Cl)ccc1-n1cncn1)c1ccc(S(=O)(=O)N2CCCC2)cc1`, the IC50 was > 50 µM (inactive).

Regarding `CCn1c(=O)c2ccccc2n(Cc2nc(-c3ccccc3OC)no2)c1=O`, the IC50 was > 50 µM (inactive).

Take `CCn1cc2c(n1)c(=O)n(Cc1ccc(C)cc1)c(=O)n2CC(=O)Nc1ccc(F)cc1`: the IC50 is 4.06 µM.

In the case of `Cc1ccc(N=Cc2sc(O)c3ccccc23)c(C)c1`, the IC50 is > 50 µM (inactive).

For `COc1ccc(Cn2cnc3c([nH]c4ccc(Br)cc43)c2=O)cc1`, the 50% inhibitory concentration (IC50) was 0.778 µM.

In the case of `CCOc1ccc(NC(=O)Cn2cc(C(=O)c3ccc(Cl)cc3)c(=O)c3cc(OC)ccc32)cc1`, the IC50 is 2.74 µM.

As for `CNS(=O)(=O)c1ccc(CNC(=O)c2cc(-c3ccc(C)cc3)no2)cc1`, the IC50 is 20.2 µM.

Regarding `O=C(Nc1cccn(Cc2c(Cl)cccc2Cl)c1=O)c1ccccc1[N+](=O)[O-]`, the IC50 was 37 µM.

For the compound `Cc1nc(C(=O)N[C@@H](C)C(=O)NCc2ccc3c(c2)OCO3)cc2c1[nH]c1ccccc12`, the IC50 was 27.2 µM.

For the compound `O=C(COc1ncnc2ccccc12)Nc1ccc2c(c1)OC1(CCCC1)O2`, the IC50 was 35.2 µM.

In the case of `CC(=O)c1oc2nc3c(c(-c4ccc(Cl)cc4)c2c1N)CCc1ccccc1-3`, the IC50 is > 50 µM (inactive).

On to `COc1ccc(NC(=O)c2sc(N3CCOCC3)nc2-c2ccccc2)c(OC)c1`, for which the IC50 was 27.7 µM.

On to `C/C1=C/CC(O)/C=C/C(C)C(O)C(C)/C=C(\C)C(=O)c2c(O)c(C)cc3c2C(=O)C(Cl)=C(NC(=O)\C=C/C=C/C=C\C(C)C(O)CC1=O)C3=O` (stereo not given), for which the IC50 is 20.2 µM.

For `O=C(COc1ccc(F)cc1)Nc1cnc(-c2ccc(Cl)cc2)nc1`, the IC50 is 24 µM.

The term IC50 denotes the concentration that gives 50% inhibition.
